PubChem BioAssay AID248 (DTP/NCI, 2004)
Where “and” joins values, the source holds several entries; their conditions need not be identical. Equal entries are not always repeated. Toxic doses and inconclusive results are not listed.

Tested on: L1210 leukemia ip in BDF1 mice, survival T/C
Assay: NCI In Vivo Anticancer Drug Screen. Data for tumor model L1210 Leukemia (intraperitoneal) in B6D2F1 (BDF1) mice
Conditions: endpoint: mean survival time, higher = longer survival
Method in brief: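 Transplantable tumor model; survival measured in treated vs vehicle control mice. Value = treated/control.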

[1] = dose: 100.0 mg/kg/injection, schedule: Q01DX001 (ip), vehicle: carboxymethylcellulose (CMC)
[2] = dose: 200.0 mg/kg/injection, schedule: Q01DX001 (ip), vehicle: carboxymethylcellulose (CMC)
[3] = dose: 400.0 mg/kg/injection, schedule: Q01DX001 (ip), vehicle: carboxymethylcellulose (CMC)
[4] = dose: 50.0 mg/kg/injection, schedule: Q01DX001 (ip), vehicle: carboxymethylcellulose (CMC)
[5] = dose: 100.0 mg/kg/injection, schedule: Q01DX001 (ip), vehicle: Klucel (hydroxypropylcellulose) (HPC)
[6] = dose: 200.0 mg/kg/injection, schedule: Q01DX001 (ip), vehicle: Klucel (hydroxypropylcellulose) (HPC)
[7] = dose: 400.0 mg/kg/injection, schedule: Q01DX001 (ip), vehicle: Klucel (hydroxypropylcellulose) (HPC)

CC1C=CCC(C)(C)C1 (stereo not given)
T/C [1]: 95 % of control | T/C [2]: 100 % of control | T/C (dose: 200.0 mg/kg/injection, schedule: Q01DX009 (ip), vehicle: carboxymethylcellulose (CMC)): 94 % of control | T/C [3]: 114 % of control | T/C (dose: 400.0 mg/kg/injection, schedule: Q01DX009 (ip), vehicle: carboxymethylcellulose (CMC)): 90 % of control | T/C (dose: 600.0 mg/kg/injection, schedule: Q01DX009 (ip), vehicle: carboxymethylcellulose (CMC)): 92 % of control

O=C(Nc1ccc(Cl)cc1)Nc1ccccc1F
T/C (dose: 200.0 mg/kg/injection, schedule: Q04DX003 (ip), vehicle: saline with Tween-80): 91 % of control | T/C (dose: 400.0 mg/kg/injection, schedule: Q04DX003 (ip), vehicle: saline with Tween-80): 89 % of control

CS(=O)(=O)OC[C@H](OS(=O)(=O)O)[C@H](COS(C)(=O)=O)OS(=O)(=O)O
T/C (dose: 50.0 mg/kg/injection, schedule: Q01DX009 (ip), vehicle: saline): 106 % of control | T/C (dose: 50.0 mg/kg/injection, schedule: Q04DX003 (ip), vehicle: saline): 89 % of control | T/C (dose: 100.0 mg/kg/injection, schedule: Q01DX001 (ip), vehicle: saline): 89 % of control | T/C (dose: 100.0 mg/kg/injection, schedule: Q01DX009 (ip), vehicle: saline): 95 % of control | T/C (dose: 100.0 mg/kg/injection, schedule: Q04DX003 (ip), vehicle: saline): 96 % of control | T/C (dose: 200.0 mg/kg/injection, schedule: Q01DX001 (ip), vehicle: saline): 95 % of control | T/C (dose: 200.0 mg/kg/injection, schedule: Q01DX009 (ip), vehicle: saline): 98 % of control | T/C (dose: 200.0 mg/kg/injection, schedule: Q04DX003 (ip), vehicle: saline): 91 % of control

CC(=O)Nc1cc(F)c2c(c1)Cc1cc(F)ccc1-2
T/C [4]: 102 % of control | T/C [1]: 98 % of control | T/C [2]: 93 % of control | T/C [3]: 93 % of control

CC(=O)Nc1ccc(N(CCO)CCO)cc1
T/C (dose: 25.6 mg/kg/injection, schedule: Q04DX002 (ip), vehicle: saline with Tween-80): 88 % of control | T/C (dose: 64.0 mg/kg/injection, schedule: Q04DX002 (ip), vehicle: saline with Tween-80): 88 % of control | T/C (dose: 160.0 mg/kg/injection, schedule: Q04DX002 (ip), vehicle: saline with Tween-80): 88 % of control | T/C (dose: 400.0 mg/kg/injection, schedule: Q04DX002 (ip), vehicle: saline with Tween-80): 92 % of control

C[C@H](CCC(=O)O)[C@H]1CC[C@H]2[C@@H]3[C@H](O)C[C@@H]4C[C@H](O)CC[C@]4(C)[C@H]3C[C@H](O)[C@]12C (tested in a mixture with another compound)
T/C (dose: 37.5 mg/kg/injection, schedule: Q01DX009 (ip), vehicle: saline): 107 % of control | T/C (dose: 50.0 mg/kg/injection, schedule: Q04DX003 (ip), vehicle: other): 105 % of control | T/C (dose: 75.0 mg/kg/injection, schedule: Q01DX009 (ip), vehicle: saline): 111 % of control | T/C (dose: 77.0 mg/kg/injection, schedule: Q01DX Z (ip), vehicle: methylcellulose (MC)): 105 % of control | T/C (dose: 80.0 mg/kg/injection, schedule: Q01DX009 (ip), vehicle: other): 97 % of control | T/C (dose: 80.0 mg/kg/injection, schedule: Q01DX009 (ip), vehicle: saline): 115 % of control | T/C (dose: 80.0 mg/kg/injection, schedule: Q01DX Z (ip), vehicle: saline): 111 % of control | T/C (dose: 100.0 mg/kg/injection, schedule: Q01DX001 (ip), vehicle: alcohol): 96 % of control | T/C (dose: 100.0 mg/kg/injection, schedule: Q04DX003 (ip), vehicle: other): 97 % of control | T/C (dose: 116.0 mg/kg/injection, schedule: Q01DX Z (ip), vehicle: methylcellulose (MC)): 115 % of control | T/C (dose: 120.0 mg/kg/injection, schedule: Q01DX009 (ip), vehicle: other): 118 % of control | T/C (dose: 120.0 mg/kg/injection, schedule: Q01DX Z (ip), vehicle: saline): 152 % of control | T/C (dose: 150.0 mg/kg/injection, schedule: Q01DX009 (ip), vehicle: saline): 88 % of control | T/C (dose: 180.0 mg/kg/injection, schedule: Q01DX009 (ip), vehicle: other): 115 % of control | T/C (dose: 180.0 mg/kg/injection, schedule: Q01DX Z (ip), vehicle: methylcellulose (MC)): 115 % of control | T/C (dose: 180.0 mg/kg/injection, schedule: Q01DX Z (ip), vehicle: saline): 179 % of control | T/C (dose: 198.0 mg/kg/injection, schedule: Q04DX003 (ip), vehicle: other): 115 % of control | T/C (dose: 200.0 mg/kg/injection, schedule: Q01DX001 (ip), vehicle: alcohol): 92 % of control | T/C (dose: 200.0 mg/kg/injection, schedule: Q04DX003 (ip), vehicle: other): 105 % of control | T/C (dose: 263.0 mg/kg/injection, schedule: Q01DX Z (ip), vehicle: methylcellulose (MC)): 96 % of control | T/C (dose: 270.0 mg/kg/injection, schedule: Q01DX Z (ip), vehicle: saline): 114 % of control

OCCCc1cc(Br)ccc1O
T/C [4]: 105 % of control | T/C [1]: 100 % of control | T/C [2]: 100 % of control | T/C [3]: 92 % of control

O=C(C=C(C(F)(F)F)C(F)(F)F)c1cc(Cl)ccc1Cl
T/C (dose: 12.5 mg/kg/injection, schedule: Q01DX009 (ip), vehicle: saline with Tween-80): 110 % of control | T/C (dose: 12.5 mg/kg/injection, schedule: Q04DX003 (ip), vehicle: saline with Tween-80): 97 % of control | T/C (dose: 25.0 mg/kg/injection, schedule: Q01DX009 (ip), vehicle: saline with Tween-80): 102 % of control | T/C (dose: 25.0 mg/kg/injection, schedule: Q04DX003 (ip), vehicle: saline with Tween-80): 100 % of control | T/C (dose: 50.0 mg/kg/injection, schedule: Q04DX003 (ip), vehicle: saline with Tween-80): 105 % of control

O=C(COc1ccc(Cl)c(Cl)c1)Nc1ccc[n+](CC(=O)c2cccc(S(=O)(=O)F)c2)c1
T/C (dose: 25.0 mg/kg/injection, schedule: Q01DX001 (ip), vehicle: saline with Tween-80): 96 % of control | T/C (dose: 50.0 mg/kg/injection, schedule: Q01DX001 (ip), vehicle: saline with Tween-80): 98 % of control | T/C (dose: 100.0 mg/kg/injection, schedule: Q01DX001 (ip), vehicle: saline with Tween-80): 107 % of control

CN1C(c2ccccc2)NC(=O)C12CCN(CCCC(=O)c1ccccc1)CC2 (stereo not given)
T/C [5]: 100 % of control | T/C [6]: 96 % of control | T/C [7]: 100 % of control

O=S1(=O)C2C=CCC1C(Cl)CC2 (stereo not given)
T/C (dose: 12.5 mg/kg/injection, schedule: Q01DX001 (ip), vehicle: Klucel (hydroxypropylcellulose) (HPC)): 97 % of control | T/C (dose: 12.5 mg/kg/injection, schedule: Q01DX009 (ip), vehicle: Klucel (hydroxypropylcellulose) (HPC)): 92 % of control | T/C (dose: 25.0 mg/kg/injection, schedule: Q01DX001 (ip), vehicle: Klucel (hydroxypropylcellulose) (HPC)): 95 % of control | T/C (dose: 25.0 mg/kg/injection, schedule: Q01DX009 (ip), vehicle: Klucel (hydroxypropylcellulose) (HPC)): 89 % of control | T/C (dose: 50.0 mg/kg/injection, schedule: Q01DX001 (ip), vehicle: Klucel (hydroxypropylcellulose) (HPC)): 93 % of control

CCC/C(=N/NC(=O)CNC(=O)c1ccccc1)c1ccccc1
T/C (dose: 100.0 mg/kg/injection, schedule: Q01DX009 (ip), vehicle: saline with Tween-80): 100 % of control | T/C (dose: 200.0 mg/kg/injection, schedule: Q01DX009 (ip), vehicle: saline with Tween-80): 96 % of control | T/C (dose: 400.0 mg/kg/injection, schedule: Q01DX009 (ip), vehicle: saline with Tween-80): 92 % of control

S=C(N/N=C/c1ccncc1)Nc1ccccc1
T/C [5]: 96 % of control | T/C (dose: 100.0 mg/kg/injection, schedule: Q01DX009 (ip), vehicle: Klucel (hydroxypropylcellulose) (HPC)): 97 % of control and 100 % of control | T/C (dose: 100.0 mg/kg/injection, schedule: Q04DX002 (ip), vehicle: Klucel (hydroxypropylcellulose) (HPC)): 102 % of control and 91 % of control | T/C (dose: 100.0 mg/kg/injection, schedule: Q04DX003 (ip), vehicle: Klucel (hydroxypropylcellulose) (HPC)): 103 % of control | T/C [6]: 100 % of control | T/C (dose: 200.0 mg/kg/injection, schedule: Q01DX009 (ip), vehicle: Klucel (hydroxypropylcellulose) (HPC)): 108 % of control | T/C (dose: 200.0 mg/kg/injection, schedule: Q04DX002 (ip), vehicle: Klucel (hydroxypropylcellulose) (HPC)): 98 % of control and 102 % of control | T/C (dose: 200.0 mg/kg/injection, schedule: Q04DX003 (ip), vehicle: Klucel (hydroxypropylcellulose) (HPC)): 106 % of control | T/C [7]: 98 % of control | T/C (dose: 400.0 mg/kg/injection, schedule: Q01DX009 (ip), vehicle: Klucel (hydroxypropylcellulose) (HPC)): 94 % of control and 104 % of control | T/C (dose: 400.0 mg/kg/injection, schedule: Q04DX002 (ip), vehicle: Klucel (hydroxypropylcellulose) (HPC)): 97 % of control and 98 % of control | T/C (dose: 400.0 mg/kg/injection, schedule: Q04DX003 (ip), vehicle: Klucel (hydroxypropylcellulose) (HPC)): 94 % of control
